Earlier results as cited in patent US11167277B2, “Cu(I)-catalyzed azide-alkyne cycloadditions (CuAAC) ligands and methods for carrying out Cu(I)-catalyzed azide-alkyne cycloaddition reactions” (UNIVERSITY OF PITTSBURGH-OF THE COMMONWEALTH SYSTEM OF …, priority 2014, dated 2021).

Tested on: Zebrafish embryos
Details: co-treatment with 1 mM CuSO4, 1.5 mM sodium ascorbate and 0.1 mM TBTA; toxicity attributed to copper(I)

In the case of `c1ccc(Cn2cc(CN(Cc3cn(Cc4ccccc4)nn3)Cc3cn(Cc4ccccc4)nn3)nn2)cc1` [TBTA], the “time beyond which Zebrafish embryos do not survive” value is listed as ≤ 15 min.
